Measured values from US20240254118A1, “PRMT5 INHIBITORS AND USES THEREOF” (Gilead Sciences, Inc., priority 2022, published 2024).

Tests used:
[1] = test system: SDMA signal (PRMT5 inhibition) in HCT116 MTAP-deleted cells; test: Symmetric di-methyl arginine image-based high content screen assay (SDMA assay), HCT116 MTAP-deleted; type: cell-based; conditions: SDMA assay; for EC50: Homo sapiens, HCT-116, 72 h, 3 days of treatment, cell line not given, taken as HCT116 MTAP-deleted, read-out: EC50 (SDMA assay); for EC50 selectivity (SDMA assay): taken as HCT116 WT versus MTAP-deleted
Summary of the method: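 HCT116 MTAP-deleted cells treated with compound until Day 3, then formalin-fixed, permeabilized and immunostained for SDMA, with DAPI nuclear counterstain. Imaged by high-content microscopy; SDMA read-out is mean Alexa 488 intensity per DAPI-defined cell, reflecting PRMT5 inhibition.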

[2] = test system: HCT116 MTAP-deleted cells; test: Cell viability assay (CellTiter-Glo, 7 days), HCT116 MTAP-deleted; conditions: Homo sapiens, HCT-116, 168 h

Compound | EC50 [1] [nM] | EC50 selectivity (SDMA assay) [1] | CC50 [2] [nM]
CN(C(=O)C1(C#N)CCC1)N(Cc1ccc(C(F)(F)F)cn1)C(=O)c1ccc2nc(N)c3cnn(C)c3c2c1 [Example 192, 4-amino-N′-(1-cyanocyclobutanecarbonyl)-N′,1-dimethyl-N-[[5-(trifluoromethyl)-2-pyridyl]methyl]pyrazolo[4,3-c]quinoline-8-carbohydrazide] | 1 to 5 | 185 | 100 to 1000
CN(C(=O)C1(F)CC1)N(Cc1ccc(C(F)(F)F)nn1)C(=O)c1ccc2nc(N)c3cnn(C)c3c2c1 [Example 193, 4-amino-N′-(1-fluorocyclopropanecarbonyl)-N′,1-dimethyl-N-[[6-(trifluoromethyl)pyridazin-3-yl]methyl]pyrazolo[4,3-c]quinoline-8-carbohydrazide] | < 1 | 202 | < 100
CN(C(=O)C1(F)CC1)N(Cc1ccc(C(F)(F)F)nn1)C(=O)c1cc2c(cc1F)nc(N)c1cnn(C)c12 [Example 194, 4-amino-7-fluoro-N′-(1-fluorocyclopropanecarbonyl)-N′, 1-dimethyl-N-[[6-(trifluoromethyl)pyridazin-3-yl]methyl]pyrazolo[4,3-c]quinoline-8-carbohydrazide] | < 1 | 68 | < 100
CN(C(=O)C(F)F)N(Cc1ccc(C(F)(F)F)cn1)C(=O)c1ccc2nc(N)c3cnn(C)c3c2c1 [Example 195, 4-amino-N′-(2,2-difluoroacetyl)-N′,1-dimethyl-N-[[5-(trifluoromethyl)-2-pyridyl]methyl]pyrazolo[4,3-c]quinoline-8-carbohydrazide] | < 1 | 146 | < 100
CC(=O)N(C)N(Cc1ccc2ncsc2c1)C(=O)c1ccc2nc(N)c3cnn(C)c3c2c1 [Example 196, N′-acetyl-4-amino-N-(1,3-benzothiazol-6-ylmethyl)-N′,1-dimethyl-pyrazolo[4,3-c]quinoline-8-carbohydrazide] | 1 to 5 | 137 | < 100
CN(C(=O)[C@H]1CCO1)N(Cc1ccc(C(F)(F)F)cc1F)C(=O)c1ccc2nc(N)c3cnn(C)c3c2c1 [Example 197, 4-amino-N-[[2-fluoro-4-(trifluoromethyl)phenyl]methyl]-N′,1-dimethyl-N′-[(2R)-oxetane-2-carbonyl]pyrazolo[4,3-c]quinoline-8-carbohydrazide] | < 1 | 61 | < 100
CN(C(=O)[C@@H]1CCO1)N(Cc1ccc(C(F)(F)F)cc1F)C(=O)c1ccc2nc(N)c3cnn(C)c3c2c1 [Example 198, 4-amino-N-[[2-fluoro-4-(trifluoromethyl)phenyl]methyl]-N′,1-dimethyl-N′-[(2S)-oxetane-2-carbonyl]pyrazolo[4,3-c]quinoline-8-carbohydrazide] | < 1 | 57 | < 100
Cn1ncc2c(N)nc3ccc(C(=O)N(Cc4ccc(C(F)(F)F)cc4F)n4ccnc4)cc3c21 [Example 199, 4-amino-N-[[2-fluoro-4-(trifluoromethyl)phenyl]methyl]-N-imidazol-1-yl-1-methyl-pyrazolo[4,3-c]quinoline-8-carboxamide] | < 1 | 26 | < 100
Cn1ncc2c(N)nc3cc(F)c(C(=O)N(Cc4ccc(C(F)(F)F)cc4F)n4ccnc4)cc3c21 [Example 200, 4-amino-7-fluoro-N-[[2-fluoro-4-(trifluoromethyl)phenyl]methyl]-N-imidazol-1-yl-1-methyl-pyrazolo[4,3-c]quinoline-8-carboxamide] | < 1 | 6 | < 100
COC(C)(C)C(=O)N(C)N(Cc1ccc(C(F)(F)F)cn1)C(=O)c1ccc2nc(N)c3cnn(C)c3c2c1 [Example 201, 4-amino-N′-(2-methoxy-2-methyl-propanoyl)-N′,1-dimethyl-N-[[5-(trifluoromethyl)-2-pyridyl]methyl]pyrazolo[4,3-c]quinoline-8-carbohydrazide] | 1 to 5 | 423 | < 100
Nc1nc2ccc(C(=O)N(Cc3ccc(C(F)(F)F)cn3)N3CCCCC3=O)cc2c2[nH]ncc12 [Example 202, 4-amino-N-(2-oxo-1-piperidyl)-N-[[5-(trifluoromethyl)-2-pyridyl]methyl]-1H-pyrazolo[4,3-c]quinoline-8-carboxamide] | 1 to 5 | 10 | < 100
CC(=O)N(C(C)C)N(Cc1ccc(C(F)(F)F)cn1)C(=O)c1ccc2nc(N)c3cnn(C)c3c2c1 [Example 203, N′-acetyl-4-amino-N′-isopropyl-1-methyl-N-[[5-(trifluoromethyl)-2-pyridyl]methyl]pyrazolo[4,3-c]quinoline-8-carbohydrazide] | 1 to 5 | 159 | 100 to 1000
CCN(C(C)=O)N(Cc1ccc(C(F)(F)F)cn1)C(=O)c1ccc2nc(N)c3cnn(C)c3c2c1 [Example 204, N′-acetyl-4-amino-N′-ethyl-1-methyl-N-[[5-(trifluoromethyl)-2-pyridyl]methyl]pyrazolo[4,3-c]quinoline-8-carbohydrazide] | 1 to 5 | 150 | < 100
CCN(C(C)=O)N(Cc1ccc(C(F)(F)F)cn1)C(=O)c1cc2c(cc1F)nc(N)c1cnn(C)c12 [Example 205, N′-acetyl-4-amino-N′-ethyl-7-fluoro-1-methyl-N-[[5-(trifluoromethyl)-2-pyridyl]methyl]pyrazolo[4,3-c]quinoline-8-carbohydrazide] | < 1 | 44 | < 100
CC(=O)N([C@@H]1CCOC1)N(Cc1ccc(C(F)(F)F)cn1)C(=O)c1ccc2nc(N)c3cnn(C)c3c2c1 [Example 206, N′-acetyl-4-amino-1-methyl-N′-[(3R)-tetrahydrofuran-3-yl]-N-[[5-(trifluoromethyl)-2-pyridyl]methyl]pyrazolo[4,3-c]quinoline-8-carbohydrazide] | > 5 | 220 | 100 to 1000
CC(=O)N([C@H]1CCOC1)N(Cc1ccc(C(F)(F)F)cn1)C(=O)c1ccc2nc(N)c3cnn(C)c3c2c1 [Example 207, N′-acetyl-4-amino-1-methyl-N′-[(3S)-tetrahydrofuran-3-yl]-N-[[5-(trifluoromethyl)-2-pyridyl]methyl]pyrazolo[4,3-c]quinoline-8-carbohydrazide] | 1 to 5 | 364 | 100 to 1000
Cn1ncc2c(N)nc3ccc(C(=O)N(Cc4nc5cc(Cl)ccc5n4C)N4CCCC4=O)cc3c21 [Example 208, 4-Amino-N-[(5-chloro-1-methyl-benzimidazol-2-yl)methyl]-1-methyl-N-(2-oxopyrrolidin-1-yl)pyrazolo[4,3-c]quinoline-8-carboxamide] | < 1 | 91 | < 100
CC(=O)N(C)N(Cc1nc2cc(Cl)ccc2n1C)C(=O)c1ccc2nc(N)c3cnn(C)c3c2c1 [Example 209, N′-Acetyl-4-amino-N-[(5-chloro-1-methyl-benzimidazol-2-yl)methyl]-N′,1-dimethyl-pyrazolo[4,3-c]quinoline-8-carbohydrazide] | < 1 | 228 | < 100
CC(=O)N(C)N(Cc1nc2cc(Cl)ccc2n1C)C(=O)c1cc2c(cc1F)nc(N)c1cnn(C)c12 [Example 210, N′-acetyl-4-amino-N-[(5-chloro-1-methyl-benzimidazol-2-yl)methyl]-7-fluoro-N′,1-dimethyl-pyrazolo[4,3-c]quinoline-8-carbohydrazide] | 1 to 5 | 59 | < 100
Cn1ncc2c(N)nc3ccc(C(=O)N(Cc4nc5cc(Cl)ccc5n4C)N4CCCCC4=O)cc3c21 [Example 211, 4-amino-N-((5-chloro-1-methyl-1H-benzo[d]imidazol-2-yl)methyl)-1-methyl-N-(2-oxopiperidin-1-yl)-1H-pyrazolo[4,3-c]quinoline-8-carboxamide] | < 1 | 142 | < 100
Cn1ncc2c(N)nc3cc(F)c(C(=O)N(Cc4nc5cc(Cl)ccc5n4C)N4CCCCC4=O)cc3c21 [Example 212, 4-Amino-N-[(5-chloro-1-methyl-benzimidazol-2-yl)methyl]-7-fluoro-1-methyl-N-(2-oxo-1-piperidyl)pyrazolo[4,3-c]quinoline-8-carboxamide] | 1 to 5 | 80 | < 100
CC(=O)N(C)N(Cc1cc2ccccc2s1)C(=O)c1ccc2nc(N)c3cnn(C)c3c2c1 [Example 213, N′-Acetyl-4-amino-N-(benzothiophen-2-ylmethyl)-N′,1-dimethyl-pyrazolo[4,3-c]quinoline-8-carbohydrazide] | < 1 | 209 | < 100
CC(=O)N(C)N(Cc1nc2ccc(F)cc2s1)C(=O)c1cc2c(cc1F)nc(N)c1cnn(C)c12 [Example 214, N′-acetyl-4-amino-7-fluoro-N-[(6-fluoro-1,3-benzothiazol-2-yl)methyl]-N′,1-dimethyl-pyrazolo[4,3-c]quinoline-8-carbohydrazide] | < 1 | 74 | < 100
CC(=O)NN(Cc1nc2cc(C(F)(F)F)ccc2s1)C(=O)c1ccc2nc(N)c3cnn(C)c3c2c1 [Example 215, N′-acetyl-4-amino-1-methyl-N-[[5-(trifluoromethyl)-1,3-benzothiazol-2-yl]methyl]pyrazolo[4,3-c]quinoline-8-carbohydrazide] | < 1 | 90 | < 100
